{
  "source": "patent US9908890B2",
  "about": "“Selective inhibitors of constitutive androstane receptor” (ST. JUDE CHILDREN'S RESEARCH HOSPITAL, priority 2014, dated 2018)",
  "key": {"hCAR1": {"target": "T1, hCAR1 (Homo sapiens, UniProt Q14994)", "T1 construct": "expressed in transfected cells; host or cells: HepG2 (transient transfection)", "T1 sequence (Q14994 1-348 isoform Q14994-2)": "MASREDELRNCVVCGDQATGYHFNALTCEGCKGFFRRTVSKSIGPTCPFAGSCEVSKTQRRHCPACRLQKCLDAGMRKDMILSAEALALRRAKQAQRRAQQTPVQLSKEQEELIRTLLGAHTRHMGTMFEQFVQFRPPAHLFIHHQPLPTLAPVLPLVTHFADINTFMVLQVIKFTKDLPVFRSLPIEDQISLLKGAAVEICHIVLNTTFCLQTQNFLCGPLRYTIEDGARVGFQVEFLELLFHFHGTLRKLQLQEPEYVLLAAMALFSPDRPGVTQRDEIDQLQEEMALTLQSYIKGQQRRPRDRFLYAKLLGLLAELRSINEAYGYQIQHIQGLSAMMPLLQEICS", "experiment": "Cell-based inverse agonist assay (CYP2B6-luciferase reporter in HepG2 cells transfected with hCAR1)", "settings": "24 h treatment; read-out: IC50, inhibition of CAR-mediated CYP2B6-luciferase activity", "protocol": "HepG2 cells grown in flasks were transfected with Flag-hCAR1 and CYP2B6-luciferase reporter at a 1:3 ratio with Fugene HD (Promega) and incubated for 24 h. Cells were trypsinized and plated in 384-well plates (CulturPlate-384, PerkinElmer) at 5000 cells/well for the primary or secondary screening assays. Cells were treated with chemicals transferred by using a pintool 24 h prior to measuring reporter luciferase activity with SteadyLite firefly luciferase reagent and an EnVision plate reader (PerkinElmer). […] PXR activity was measured in HepG2 cells stably transfected with hPXR and CYP3A4-luciferase reporter (previously described as PXR Clonel cells, see Li, G., et al. (2012) Tox. Appl. Pharm. 258, 268-274; and Lin, W., et al. (2008) J. Biol. Chem. 283, 30650-30657). […] The luminescence signal was detected by using an Envision plate reader (PerkinElmer) and used to calculate the percentage of PXR activation. […] A flowchart of our screening strategy is illustrated in FIG. 1A. HepG2 cells were transiently transfected with pcDNA-hCAR1 and CYP2B6-luciferase plasmids and treated with varying concentrations of the test compounds in 384-well plates for 24 h, and CAR-mediated luciferase activity was measured. Twenty-five hits, defined as those displaying dose-responsive inhibitory effect on the constitutively active hCAR1, were selected and tested in various secondary screening assays. CINPA1 (FIG. 1B) was selected based on its potent inhibitory effect on hCAR1 and lack of detectable agonistic activity against PXR."}, "CAR protein": {"test_system": "CAR protein", "experiment": "Western blot of CAR protein in human primary hepatocytes", "assay_type": "cell-based", "settings": "5 μM CINPA1, 48 h", "protocol": "(§1) Briefly, CAR binding to PGC-1α coactivator peptide was determined by using the LanthaScreen® fluorescent coregulator peptide assay. Fluorescein-labeled PGC-1α peptide (125 nM) was complexed with GST-hCAR-LBD (5 nM) and Tb-anti-GST antibody (5 nM) as described in Experimental Procedures. […] Lysates were prepared, and CAR expression was analyzed by Western blot using CAR monoclonal antibody (Clone N4111, R&D Systems). β-actin was used as a loading control. […] Briefly, U2OS cells were transfected to express FLAG-hCAR1. […] Secondary antibody labeled with Alexa Fluor® 555 dye was used to visualize FLAG-tagged hCAR1 (shown in the second column) using a NikonC 1Si microscope. Nuclei were stained with DAPI (shown in the first column)."}, "GST-hCAR-LBD": {"target": "T2, GST-hCAR-LBD (Homo sapiens, UniProt Q14994)", "T2 construct": "purchased Life Technologies (Carlsbad, Calif.) or Invitrogen (Carlsbad, Calif.)", "T2 sequence (Q14994 109-352 limits assumed)": "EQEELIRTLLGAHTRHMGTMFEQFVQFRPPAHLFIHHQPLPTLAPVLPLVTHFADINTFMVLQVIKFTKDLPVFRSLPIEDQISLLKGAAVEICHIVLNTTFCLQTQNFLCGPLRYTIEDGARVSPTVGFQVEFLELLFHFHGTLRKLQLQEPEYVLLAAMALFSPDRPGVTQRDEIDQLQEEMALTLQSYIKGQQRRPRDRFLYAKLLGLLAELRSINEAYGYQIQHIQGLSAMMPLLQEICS", "experiment": "CoAct binding inverse agonist assay (LanthaScreen TR-FRET, fluorescent PGC-1α coactivator recruitment/repression)", "assay_type": "biochemical"}, "[1]": {"test_system": "CAR- and PXR-regulated genes in human primary hepatocytes", "experiment": "Quantitative real-time PCR in human primary hepatocytes", "assay_type": "cell-based", "settings": "48 h", "from_the_text": "RNA was extracted, cDNA synthesized, and gene expression analyzed by performing real-time PCR using Taqman probes for each gene. […] LS174T cells were maintained in 10% charcoal-dextran-treated, FBS media for 4 days before the experiment. […] Briefly, human primary hepatocytes (HPH) were maintained in William's E media with supplements for 4 days before treatment. […] RNA extracted was used for cDNA synthesis and measured by performing quantitative real-time PCR assays with Taqman probes.\nBriefly, human primary hepatocytes (donor 5) were maintained in William's E Media with supplements for 4 days prior to treatment. […] RNA extracted was used for cDNA synthesis and measured by quantitative real-time PCR with Taqman probes. CYP2B6 and CYP3A4 mRNA were normalized to the internal control 18S and DMSO-treated samples were set to 1.\nCell lines or human hepatocytes were treated with chemicals for 24-48 hours before RNA was extracted and purified by using the Maxwell 16LEV simplyRNA tissue kit (Promega). Then, cDNA was prepared from 2 μg of RNA, and diluted cDNA was used to perform quantitative RT-PCR assays by using TaqMan probes (ABI; 7500 Thermocycler) with 18S as the internal standard."}, "[2]": {"test_system": "FLAG-hCAR1 nuclear localization", "experiment": "Immunofluorescence of FLAG-hCAR1 in U2OS cells", "assay_type": "cell-based, human", "settings": "5 μM CINPA1, 2 h", "protocol": "as §1\nU2OS cells were transiently transfected to express FLAG-hCAR1. […] Cells were fixed by using a 4% paraformaldehyde solution (Sigma), permeabilized by using 0.5% Triton X-100 in PBS, and incubated with FLAG-antibody overnight at 4° C. Cells were washed three times with PBS following each step. Secondary antibody labeled with Alexa Fluor® 555 dye was used to visualize FLAG-tagged hCAR1 (red) using a NikonC 1Si microscope. Nuclei were stained with DAPI (blue)."}},
  "note": "pIC50: −log10 of the molar value.",
  "data": [
    {"smiles": "CCOC(=O)Nc1ccc2c(c1)N(C(=O)CN(CC)CC)c1ccccc1CC2", "note": "[CINPA1]", "values": [
      {"measurement": "pIC50", "setting": "hCAR1", "value": 7.14},
      {"measurement": "CAR protein level", "setting": "CAR protein", "value": "had no effect"},
      {"measurement": "CAR-LBD interaction with PGC-1α coactivator peptide", "setting": "GST-hCAR-LBD; dose response, FIG. 6A", "value": "efficiently inhibits"},
      {"measurement": "pIC50", "setting": "GST-hCAR-LBD; read-out: IC50 (CAR inverse agonistic activity)", "value": 6.16},
      {"measurement": "CITCO-induced CAR transactivation of the CYP2B6 gene", "setting": "[1]; 1 μM CITCO plus CINPA1 (5, 1 or 0.3 μM for Donor 1, 2, 3)", "value": "effectively inhibited"},
      {"measurement": "rifampicin-induced PXR-mediated gene expression", "setting": "[1]; 5 μM CINPA1 with 10 μM rifampicin", "value": "could not reduce"},
      {"measurement": "nuclear localization of CAR", "setting": "[2]", "value": "does not alter the nuclear localization of CAR"}
    ]}
  ]
}
